Reference: patent publication US20240360103A1, “COMPLEMENT INHIBITION” (Apellis Pharmaceuticals, Inc., priority 2021, published 2024)

Biological target: C3 convertase (CVF:Bb) (Homo sapiens, UniProt P00751)
Test: C3 Convertase Assay (biochemical assay, compound contacted with CVF:Bb, then C3 substrate added)
Excerpt: Various technologies are available for assessing provided compounds, compositions and methods. In some embodiments, a useful assay is an assay described below. […] In some embodiments, a purified, isolated or enriched C3 convertase is utilized. […] In some embodiments, a compound was first contacted with CVF:Bb, followed by addition of C3 substrates. As those skilled in the art will appreciate, products C3a and/or C3b could be detected through a number of technologies (e.g., antibodies specific for a product) and reduction of levels of one or both of them could be utilized to assess inhibition.

Sequence of C3 convertase (CVF:Bb) (P00751 260-764 limits assumed): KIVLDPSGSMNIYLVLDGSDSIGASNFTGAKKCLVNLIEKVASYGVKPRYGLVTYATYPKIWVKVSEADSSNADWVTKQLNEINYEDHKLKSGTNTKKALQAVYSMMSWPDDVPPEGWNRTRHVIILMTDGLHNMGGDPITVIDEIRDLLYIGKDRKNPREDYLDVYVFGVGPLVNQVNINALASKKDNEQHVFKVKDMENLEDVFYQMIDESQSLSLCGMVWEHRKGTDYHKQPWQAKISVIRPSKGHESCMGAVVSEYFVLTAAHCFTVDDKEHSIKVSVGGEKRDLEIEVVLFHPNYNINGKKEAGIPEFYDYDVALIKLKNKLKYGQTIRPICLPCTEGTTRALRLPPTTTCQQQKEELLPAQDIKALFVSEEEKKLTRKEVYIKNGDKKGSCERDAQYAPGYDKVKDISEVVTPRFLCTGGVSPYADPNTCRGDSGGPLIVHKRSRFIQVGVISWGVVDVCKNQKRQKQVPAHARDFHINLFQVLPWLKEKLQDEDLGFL

| SMILES | IC50 [nM] |
| --- | --- |
| COc1cc(C)c2[nH]ccc2c1CN1CCN(Cc2ccccc2)CC1c1ccc(C(=O)O)cc1 (centres unmarked) | 5240 |
| COc1cc(C)c2[nH]ccc2c1CN1CCN(S(C)(=O)=O)CC1c1ccc(C(=O)O)cc1 (centres unmarked) | 9330 |
| COc1cc(C)c2[nH]ccc2c1CN1CCN(C(C)=O)CC1c1ccc(C(=O)O)cc1 (centres unmarked) | > 10000 |
| COc1cc(C)c2[nH]ccc2c1CN1CCN(c2ccccc2)CC1c1ccc(C(=O)O)cc1 (centres unmarked) | > 10000 |
| COc1cc(C)c2[nH]ccc2c1CN1CCNCC1c1ccc(C(=O)O)cc1 (centres unmarked) | > 10000 |
| COc1cc(C)c2[nH]ccc2c1CN1CCN(C(C)C)CC1c1ccc(C(=O)O)cc1 (centres unmarked) | 652 |
| COc1cc(C)c2[nH]ccc2c1CN1CCN(CC2CC2)CC1c1ccc(C(=O)O)cc1 (centres unmarked) | 2290 |
| COc1cc(C)c2[nH]ccc2c1CN1CCN(CC(C)C)CC1c1ccc(C(=O)O)cc1 (centres unmarked) | 4670 |
| COc1cc(C)c2[nH]ccc2c1CN1CCN(C2CCC2)CC1c1ccc(C(=O)O)cc1 (centres unmarked) | 2580 |
| COc1cc(C)c2[nH]ccc2c1C(=O)N1CCN(C)CC1c1ccc(C(=O)O)cc1 (centres unmarked) | > 10000 |
| COc1cc(C)c2[nH]ccc2c1CN1CCN(C2CCCC2)CC1c1ccc(C(=O)O)cc1 (centres unmarked) | 3880 |
| CCC(C)N1CCN(Cc2c(OC)cc(C)c3[nH]ccc23)C(c2ccc(C(=O)O)cc2)C1 (centres unmarked) | 405 |
| CCCCN1CCN(Cc2c(OC)cc(C)c3[nH]ccc23)C(c2ccc(C(=O)O)cc2)C1 (centres unmarked) | 980 |
| CCC(C)CN1CCN(Cc2c(OC)cc(C)c3[nH]ccc23)C(c2ccc(C(=O)O)cc2)C1 (centres unmarked) | 6590 |
| COc1cc(C)c2[nH]ccc2c1CN1CCN(CCC(C)C)CC1c1ccc(C(=O)O)cc1 (centres unmarked) | 3200 |
| COc1cc(C)c2[nH]ccc2c1CN1CCN(CC2CCCC2)CC1c1ccc(C(=O)O)cc1 (centres unmarked) | 3080 |
| COc1cc(C)c2[nH]ccc2c1CN1CCN(C2COC2)CC1c1ccc(C(=O)O)cc1 (centres unmarked) | > 10000 |
| Cc1ccc(CN2CCN(C)CC2c2ccc(C(=O)O)cc2)c2cc[nH]c12 (centres unmarked) | 479 |
| CN1CCN(Cc2cccc3[nH]ccc23)C(c2ccc(C(=O)O)cc2)C1 (centres unmarked) | > 10000 |
| C#CCN1CCN(Cc2c(OC)cc(C)c3[nH]ccc23)C(c2ccc(C(=O)O)cc2)C1 (centres unmarked) | 1070 |
| COc1cc(C)c2[nH]ccc2c1CN1CCN(CCO)CC1c1ccc(C(=O)O)cc1 (centres unmarked) | 119 |
| COc1cc(C)c2[nH]ccc2c1CN1CCN(CC2CCC2)CC1c1ccc(C(=O)O)cc1 (centres unmarked) | 1350 |

| SMILES | IC50 [nM] |
| --- | --- |
| COCCN1CCN(Cc2c(OC)cc(C)c3[nH]ccc23)C(c2ccc(C(=O)O)cc2)C1 (centres unmarked) | 221 |
| COc1cc(C)c2[nH]ccc2c1CN1CCN(CCF)C[C@@H]1c1ccc(C(=O)O)cc1 | 42 |
| COc1cc(C)c2[nH]ccc2c1CN1CCN(CC(F)F)C[C@H]1c1ccc(C(=O)O)cc1 | 28 |
| COc1cc(C)c2[nH]ccc2c1CN1CCN(Cc2ncco2)C[C@H]1c1ccc(C(=O)O)cc1 | 9110 |
| COc1cc(C)c2[nH]ccc2c1CN1CCN(Cc2ncco2)C[C@@H]1c1ccc(C(=O)O)cc1 | > 10000 |
| Cc1cc(C2CC2)c(CN2CCN(CC(F)(F)F)C[C@H]2c2ccc(C(=O)O)cc2)c2cc[nH]c12 | 348 |
| COc1cc(C)c2[nH]ccc2c1CN1CCN(c2nccs2)C[C@H]1c1ccc(C(=O)O)cc1 | > 10000 |
| COc1cc(Cl)c2[nH]ccc2c1CN1CCN(CC(F)(F)F)C[C@@H]1c1ccc(C(=O)O)cc1 | > 10000 |
| COc1cc(Cl)c2[nH]ccc2c1CN1CCN(CC(F)(F)F)C[C@H]1c1ccc(C(=O)O)cc1 | 2350 |
| COc1cc(Cl)c2[nH]ccc2c1CN1CCN(CC(F)(F)F)CC1c1ccc(C(=O)O)cc1 (centres unmarked) | 2700 |
| COc1cc(C)c2[nH]ccc2c1CN1CC2(CC2)N(C)C[C@H]1c1ccc(C(=O)O)cc1 | 7390 |
| COc1cc(C)c2[nH]ccc2c1CN1CCN(CC(F)F)C[C@H]1c1ccc(C(=O)NS(=O)(=O)C2CC2)cc1 | 520 |
| Cc1cc(C2CC2)c(CN2CCN(CC(F)F)C[C@@H]2c2ccc(C(=O)O)cc2)c2cc[nH]c12 | 163 |
| COc1cc(C)c2[nH]ccc2c1CN1CCN(CC(F)F)C[C@@H]1c1ccc(C(=O)O)cc1 | 80 |
| COc1cc(C)c2[nH]ccc2c1CN1CCN(c2cccnn2)C[C@H]1c1ccc(C(=O)O)cc1 | > 10000 |
| COc1cc(C)c2[nH]ccc2c1CN1CCN(CCCF)C[C@H]1c1ccc(C(=O)O)cc1 | 99 |
| COc1cc(C)c2[nH]ccc2c1CN1CCN(c2ncccn2)C[C@H]1c1ccc(C(=O)O)cc1 | > 10000 |
| COc1cc(C)c2[nH]ccc2c1CN1CCN(C)C[C@@H]1c1ccc(C(=O)O)cc1 (single isomer, unassigned) | > 10000 |
| COc1cc(C)c2[nH]ccc2c1CN1CCN(C2CC2)C[C@@H]1c1ccc(C(=O)O)cc1 (single isomer, unassigned) | 4380 |
| COc1cc(C)c2[nH]ccc2c1CN1CCN(C2CC2)C[C@H]1c1ccc(C(=O)O)cc1 (single isomer, unassigned) | 96 |
| COc1cc(Cl)c2[nH]ccc2c1CN1CCN(CC(F)F)C[C@H]1c1ccc(C(=O)O)cc1 [drawing 436] | 1490 |
| COc1cc(Cl)c2[nH]ccc2c1CN1CCN(CC(F)F)C[C@H]1c1ccc(C(=O)O)cc1 [drawing 446] | 3150 |
